Test results published in patent EP2752191A1, “Compositions and methods using hdm2 antagonist and mek inhibitor” (SANOFI, priority 2013, dated 2014).

Tests used:
[1] = tested on: 90 non-kinase targets; conditions: tested at 10 µM; cited from earlier work
[2] = tested on: 217 kinases; conditions: tested at 10 µM; cited from earlier work
[3] = tested on: panel of twenty cell lines; assay: HDM2-p53 inhibitor / MEK inhibitor combination screen, ATPLite growth inhibition 72 h, Loewe synergy (Example 1); assay type: cell-based; conditions: at an FDR < 5% in some cell lines (FIG. 1)
Procedure: (§1) The combinations of HDM2-p53 inhibitor and MEK inhibitor were examined in a panel of twenty cell lines (Table 2).
(§2) A 36-point combination dose response matrix over a treatment time of seventy-two hours was used. The method by which this screen was performed is described below.
(§3) Cells were thawed from a liquid nitrogen preserved state. Once cells had been expanded and divided at their expected doubling times, cells were seeded in complete media (Table 3) at 100 cells per well in black 1536 tissue culture treated plates. Assay plates were centrifuged for 2 min at 335 x g, incubated at room temperature for 20 min, and incubated at 37° C for 24 hours before treatment.
(§4) ATP levels were used as a measure of cell number (cell growth). At the time of treatment, ATP levels were measured in an untreated set of assay plates (Tzero plates). ATP levels were measured by adding ATPLite (Perkin Elmer) according to manufacturer's instructions. The Tzero plates were read using ultra-sensitive luminescence on Envision Plate Readers. Assay plates receiving treatment were incubated with compound for 72 h at 37° C with 5% CO2. After 72 h, plates were developed for endpoint analysis using ATPLite.
Assay plates were accepted for analysis if they passed the following quality control standards: relative luciferase values were consistent throughout the entire experiment, Z' factor scores were greater than 0.6, untreated/vehicle controls behaved consistently on the plate. The calculation for synergy score is provided below.
(§5) Growth Inhibition (GI) was used as a measure of cell viability. As described above, ATP levels were measured at the time of dosing (T0) and after 72 hours (T72). The effect of vehicle alone on cell viability was determined by measuring ATP levels at T0 and 72 hours after treatment of cells with vehicle alone (T72).
GI was calculated by applying the following test and equation: If T < V0 :100*(1-T-V0/V0) [formula] If T ≥ V0 :100*(1-T-V0/V-V0) [formula]
Where T is the signal measure for a test article, V is the vehicle-treated control measure, and V0 is the vehicle control measure at time zero. This formula is derived from the Growth Inhibition calculation used in the National Cancer Institute's NCI-60 high throughput screen, as described on the world wide web at dtp.nci.nih.gov/branches/btb/ivclsp.html. A GI reading of 0% represents no growth inhibition-that is, cells treated with compound had similar levels of ATP as cells treated with vehicle and measured at 72 hours. A GI of 100% represents complete growth inhibition-that is, cells treated with compound had similar levels of ATP as cells treated with vehicle and measured at T0. A GI of 100% where cell numbers have not increased during the treatment period is indicative of a cytostatic effect for compounds reaching a plateau at this effect level. A GI of 200% represents complete death of all cells in the culture well which is indicative of an apoptotic effect.
For each cell line, the dose-response curve was measured with each HDM2-p53 antagonist and each MEK inhibitor as single agents and in pair wise combinations. Using the potency values from the single agent dose-response curves, the compounds were assigned to different groups of similar potency. Multiple doses above and below the EC50 of a given HDM2-p53 antagonist or MEK inhibitor were measured.
In each well of a plate, ATP levels were measured by […] assay as described above. ATP levels are proportional to the number of remaining live cells. […]

[4] = tested on: C32 cells; assay: ATPLite growth inhibition 72 h, dose matrix (Example 1); assay type: cell-based; conditions: single agents, or Compound (1) with Compound (6) present at 1.1 uM; 72 h (FIG. 2)
Procedure: as §1, §2, §3
as §4, with “Assay plates receiving treatment were incubated with compound for 72 h at 37° C with 5% CO2. After 72 h, plates were developed for endpoint analysis using ATPLite.” left out
as §5, with “alone (T72). […]” for “alone (T72).”

[5] = tested on: MV4-11 cells; assay: as above; assay type: cell-based; conditions: single agents, or Compound (1) with Compound (6) present at 3.3 uM; 72 h (FIG. 3)
Procedure: as §1, §2, §3
as §4, with “Assay plates receiving treatment were incubated with compound for 72 h at 37° C with 5% CO2. After 72 h, plates were developed for endpoint analysis using ATPLite.” left out
as §5, with “alone (T72). […]” for “alone (T72).”

## O=C(NC[C@H](O)CO)c1ccncc1Nc1ccc(I)cc1F [Compound (4), N-((S)-2,3-dihydroxypropyl)-3-(2-fluoro-4-iodo-phenylamino)isonicotinamide]
[1]
  activity against 90 non-kinase targets: no activity
[2]
  activity against 217 kinases: no activity

## Cn1cnc2c(F)c(Nc3ccc(Br)cc3Cl)c(C(=O)NOCCO)cc21 [Compound (6)]
[3]
  Loewe synergy with both Compound (1) and Compound (2): statistically significant Loewe synergy
[4]
  effect on C32 cells (growth inhibition): cytostasis
[5]
  effect on MV4-11 cells (growth inhibition): cytostasis

## O=C(NOCC(O)CO)c1ccc(F)c(F)c1Nc1ccc(I)cc1F (stereo not drawn) [Compound (7), N-(2,3-dihydroxy-propoxy)-3,4-difluoro-2-(2-fluoro-4-iodo-phenylamino)-benzamide]
[3]
  Loewe synergy with both Compound (1) and Compound (2): statistically significant Loewe synergy

## Cc1cnc(Nc2ccc(F)cc2Cl)nc1-c1c[nH]c(C(=O)N[C@H](CO)c2cccc(Cl)c2)c1 [Compound (8), 4-[2-(2-chloro-4-fluorophenylamino)-5-methylpyrimidin-4-yl]-N-[1(S)-(3-chlorophenyl)-2-hydroxyethyl]-1H-pyrrole-2-carboxamide]
[3]
  Loewe synergy with both Compound (1) and Compound (2): statistically significant Loewe synergy

## CNS(=O)(=O)Nc1nccc(Cc2c(C)c3ccc(Oc4ncccn4)cc3oc2=O)c1F [Compound (9), N-[3-fluoro-4-[4-methyl-2-oxo-7-(pyrimidin-2-yloxy)-2H-1-benzopyran-3-ylmethyl]pyridin-2-yl]-N'-methylsulfamide]
[3]
  Loewe synergy with both Compound (1) and Compound (2): statistically significant Loewe synergy

## COc1cc2c(Nc3ccc(Oc4ccccc4)cc3)c(C#N)cnc2cc1OCCCN1CCOCC1 [Compound (10), 6-methoxy-7-[3-(4-morpholinyl)propoxy]-4-(4-phenoxyphenylamino)quinoline-3-carbonitrile]
[3]
  Loewe synergy with both Compound (1) and Compound (2): statistically significant Loewe synergy
